According to patent US12263202B2, “Method of treating melanocortin-4 receptor pathway-associated disorders” (CHARITÉ—UNIVERSITÄTSMEDIZIN BERLIN, priority 2015, dated 2025):
“Also recorded” adds a separate entry of the source.

Key:
wild-type mice = assay: Food intake over four hours in wild-type mice; type: in vivo
Method: (§1) To determine this, wild-type and db/db mice were exposed to vehicle or varying concentrations of setmelanotide (0.0554 mpk; 0.137 mpk, 0.344 mpk, or 1.37 mpk), and their food intake was measured over four hours.

Magel2-null mice = assay: Food intake and energy expenditure in Magel2-null mice (mouse model of PWS); type: in vivo
Method: (§2) Experiments were performed to determine the effect of a MC4R agonist, setmelanotide, on Magel2-null mice. Setmelanotide was evaluated in wild type and Magel2-null mice. Adult mice (N=6 per group) were acclimated to metabolic chambers, and food intake and energy expenditure (kcal/h) were measured over time. Mice were 8 weeks old. […] Vehicle and drug (setmelanotide) were administered intraperitoneally (i.p.) (n=6 for each treatment). A 0.1 mg/kg dose of setmelanotide was injected i.p. before the start of the dark cycle in the mice.
(§3) Food intake (cumulative in grams (g)) through 3 hours post dose and overnight cumulative food intake were assessed. Energy expenditure was also measured after dosing. Post-setmelanotide treatment data were compared to the data from post-vehicle injections in the same groups of mice. Statistical analysis was by two-way ANOVA followed by Bonferroni post-testing.

db/db mice = assay: Food intake over four hours in db/db mice (leptin receptor deficient); type: in vivo
Method: as §1

wildtype mice = assay: Food intake in wild type mice (comparison to Magel2-null); type: in vivo; settings: 0.1 mg/kg i.p.
Method: as §2, §3

POMC deficient patient = assay: Phase 2 open label study of setmelanotide in an adult POMC deficient patient with severe obesity and hyperphagia; type: in vivo, human
Method: See, e.g., Chen et al. J. Clin. Endocrinol. Metab. 2015; 100:1639-45. The study was an investigator initiated, open label, phase 2, non-randomized proof of concept study (EudraCT No. 2014-002392-28; Clinical Trials Identifier No. NCT02507492) with three parts: pre-study evaluation, main study (about 13 weeks) and after a short interval off drug, a long-term extension phase.
In the pre-study period, baseline examinations were performed, including analysis of metabolic parameters, including OGTT, GnRH test, fasting blood glucose, Leptin measurements as well as bioelectrical impedance analysis (BIA, according standard protocols; Data-in, Nutriguard-MS), indirect calorimetry (CareFusion, VMAX® Encore system), heart rate and blood pressure monitoring (after the first injection and after each dosage escalation blood pressure was measured regularly over 12 hours; in addition, blood was measured at home 3 times daily) as well as a dermatological and psychological examination. All parameters were in the normal range with the exception of elevated fasting insulin reflecting insulin resistance. These measurements were repeated after 13 and 26 weeks of treatment. Baseline examination also included physical examination, e.g., measurement of height and body-weight. Setmelanotide treatment was started at a dose of 0.25 mg subcutaneously (s.c.) once daily. The dose escalated every 1-2 weeks after careful assessment of safety and weight loss. After the first injection and after each dosage escalation, blood pressure was measured regularly over 12 hours. In addition, blood was measured 3 times daily. Setmelanotide injections were given once a day.
After about 90 days of treatment (main study), assessments were repeated, including assessments of metabolic parameters, e.g., blood tests, skin examination, and psychological evaluation. Setmelanotide treatment was ended, and a rapid and large weight gain off-treatment was observed. Subsequently, setmelanotide treatment was continued for another 3 months (extension phase) along with continued assessments (of metabolic parameters). The hunger score was evaluated using a Likert hunger scale from 0 to 10 points (0=no hunger; 10=severe hunger). See, e.g., Sibilia. Psychologicol Topics 19 (2010), 2, 341-354.
Bioelectric Impedance Analysis (BIA) and indirect calorimetric analysis was performed according standard protocols, e.g., as described in Barak et al. JPEN J. Parenter. Enteral Nutr. 27.1(2003):43-6; and Compher et al. J. Am. Diet Assoc.
Statistical analysis: The values of systolic and diastolic blood pressure and heart rate were analyzed with a […].

[1] = cited from earlier work
[2] = tested on: wild-type obese human patients; assay: Weight loss in wild-type obese human patients; type: in vivo; settings: 0.01 mg/kg or 0.015 mg/kg twice daily (BID); after 2 or 4 weeks; placebo-subtracted
Method: The effect of MC4R agonist setmelanotide on wild-type obese human patients was assessed. The patients were treated with placebo or setmelanotide twice daily (BID) at 0.01 mg/kg or 0.015 mg/kg. There were 9 patients in each treatment group (6 with setmelanotide and 3 with placebo).
The amount of weight loss was determined after 2 weeks or after 4 weeks of treatment. […] The weight loss among the wild-type obese patients was about 0.6 to about 0.9 kg per week.

[3] = higher doses (0.137 mpk, 0.344 mpk, and 1.37 mpk), vs vehicle-treated mice
[4] = after 26 weeks of treatment, listed as MC4R agonist
[5] = after a 13-week treatment vs baseline
[6] = bioelectrical impedance analysis
[7] = off drug after 13 weeks of treatment (three weeks off drug)

CC(=O)N[C@@H](CCCNC(=N)N)C(=O)N[C@H]1CSSC[C@@H](C(N)=O)NC(=O)[C@H](Cc2c[nH]c3ccccc23)NC(=O)[C@H](CCCNC(=N)N)NC(=O)[C@@H](Cc2ccccc2)NC(=O)[C@H](Cc2cnc[nH]2)NC(=O)[C@@H](C)NC1=O [setmelanotide, Ac-Arg-c(Cys-D-Ala-His-D-Phe-Arg-Trp-Cys)-NH2]
food intake vs vehicle treated mice (wild-type mice; 0.0544 mpk dose, 4 hour timepoint): identical food intake | food intake (wild-type mice; 0.0544 mpk dose, at 1 and 2 hours): Decreased food intake | food intake (wild-type mice; [3]): significantly decreased food intake | increase of energy expenditure (Magel2-null mice; 0.1 mg/kg i.p., 3 hours post-dosing, vs vehicle-dosed Magel2-null mice): 11% | decrease of spontaneous food intake (Magel2-null mice; 0.1 mg/kg i.p., over the first 3 hours, P<0.05): ~75% | food intake suppression, duration (Magel2-null mice; 0.1 mg/kg i.p., overnight): persisted throughout the dark cycle | cumulative food intake (Magel2-null mice; 0.1 mg/kg, P<0.05): statistically significant decrease | sensitivity compared with wildtype mice (Magel2-null mice; 0.1 mg/kg, food intake): much more sensitive than wildtype mice | suppression of food intake (db/db mice; 0.0544 mpk dose, end of the 4 hour time period): about 80% | suppression of food intake compared with wildtype mice (db/db mice; all concentrations): more profound suppression of foodintake than wildtype mice | food intake (db/db mice; [3]): significantly decreased food intake | food intake (wildtype mice): retained normal levels of food intake | Likert hunger scale score (POMC deficient patient; 1 mg s.c. once daily, scale 0 to 10 (0=no hunger), baseline 9): 5 points | rate of weight loss (POMC deficient patient; 1.5 mg dose, first treatment phase): 2-3 kg per week | LDL (POMC deficient patient; after 26 weeks of treatment): further reduced | total cholesterol (POMC deficient patient; after 26 weeks of treatment): further reduced | total loss of body weight (POMC deficient patient; after 26 weeks of treatment): 35.9 kg | total loss of body weight, % of initial body weight (POMC deficient patient; after 26 weeks of treatment): 23.2% | triglycerides (POMC deficient patient; after 26 weeks of treatment): further reduced | total loss of body weight (POMC deficient patient; [4]): about 36 kg | total loss of body weight, % of initial body weight (POMC deficient patient; [4]): about 23% | HDL cholesterol (POMC deficient patient; [5]): did not change | LDL cholesterol (POMC deficient patient; [5]): reduced | total cholesterol (POMC deficient patient; [5]): reduced | triglycerides (POMC deficient patient; [5]): did not change | total weight loss, % of initial body weight (POMC deficient patient; after the first 13 weeks of treatment): 16.7% | total weight loss (POMC deficient patient; after the first 13 weeks of treatment, baseline 155 kg): 25.8 kg | BMI (POMC deficient patient; after the first 13 weeks, baseline 49.8): 41.5 kg/m2 | end body weight (POMC deficient patient; after the first 13 weeks, baseline 155 kg): 129.2 kg | BMI SDS (POMC deficient patient; after the first 13 weeks, baseline +4.52): +3.86 | quality of life (POMC deficient patient; after the initiation of treatment): improved dramatically | loss of body weight (POMC deficient patient; at 86 weeks of treatment): 60.5 kg | composition of the reduction of body weight (POMC deficient patient; [6]): mainly due to a loss of body-fat mass | lean body mass (POMC deficient patient; [6]): not greatly altered | resting energy expenditure (REE)/kg lean body mass (POMC deficient patient; despite severe weight loss): stayed relatively stable | blood pressure (POMC deficient patient; during all steps of dose escalation): no increase | diastolic BP (POMC deficient patient; during the study): significant decreases | heart rate (HR) (POMC deficient patient; during the study): significant decreases | systolic BP (POMC deficient patient; during the study): significant decreases | adverse event reported by the patient (POMC deficient patient; human, in vivo): infrequent dry mouth | safety laboratories (POMC deficient patient; human, in vivo): no changes in safety laboratories of clinical concern | tolerability of treatment (POMC deficient patient; human, in vivo): well tolerated | changes in hunger (POMC deficient patient; initially, with low dosage): only little changes | weight loss (POMC deficient patient; initially, with low dosage): moderate | Likert hunger score after treatment was stopped (POMC deficient patient; [7]): 7 points | weight regained after treatment was stopped (POMC deficient patient; [7]): 4.8 kg | blood glucose values (fasting and after glucose challenge) (POMC deficient patient; oral glucose tolerance test, during the study): remained always in the normal range; also recorded: relatively stable | weight loss per week (POMC deficient patient; overall, over the course of 26 weeks of treatment): 2-2.5 kg per week | rate of weight loss (POMC deficient patient; second treatment phase (1 mg for 4 weeks and 1.5 mg thereafter)): 1-2 kg per week | elevated insulin levels / insulin resistance (insulin sensitivity) (POMC deficient patient; under setmelanotide treatment): improved significantly | serum leptin concentrations (POMC deficient patient; with loss of body-fat mass): significant decrease | effect on blood pressure ([1]; clinical trials (Chen et al. 2015)): not been shown to adversely affect blood pressure | effects on sexual activity ([1]; in vivo): only infrequent | signs of increased blood pressure ([1]; in vivo): little, if any | tolerability ([1]; in vivo): generally well-tolerated | weight loss [2]: 0.6-0.9 kg per week
